In US7666890B2, “Synthesis and herbicidal activity of 1- (2-substituted benzo[d]thiazol-5-yl)-1H-1,2,4-triazol-5(4H)-one derivatives” (Huazhong Normal University, priority 2007, dated 2010):

How the values were obtained:
Test in all cases: Test of herbicidal activities (greenhouse pot method)
Assay type in all cases: in vivo
Conditions in all cases: single dose 300 g ai./h, treated before/after germination, 15 days later, greenhouse pot
Setaria viridis = system: Setaria viridis
Outline: (§1)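 Weeds were sown in soil-filled pots at 15–30 °C and treated once by spray tower at 300 g ai./h, either before emergence or post-emergence at the 2-leaf stage, in three replicates with an untreated control. Symptoms were scored 15 days later into five classes from A (≥90%) to E (<50%).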

Chenopodium album = system: Chenopodium album
Outline: as §1

Amaranthus retroflexus = system: Amaranthus retroflexus
Outline: as §1

Brassica juncea = system: Brassica juncea
Outline: as §1

Echinochloa crusgalli = system: Echinochloa crusgalli
Outline: as §1

Digiatria sanguinalis = system: Digiatria sanguinalis
Outline: as §1

| Structure (SMILES) | inhibition at 300 g/ha (Setaria viridis; Setaria viridis, 360 h, read-out: Herbicidal activity Setaria viridis (inhibition level)) [%] | inhibition at 300 g/ha (Chenopodium album; Chenopodium album, 360 h, read-out: Herbicidal activity Chenopodium album (inhibition level)) [%] | inhibition at 300 g/ha (Amaranthus retroflexus; Amaranthus retroflexus, 360 h, read-out: Herbicidal activity Amaranthus retroflexus (inhibition level)) [%] | inhibition at 300 g/ha (Brassica juncea; Brassica juncea, 360 h, read-out: Herbicidal activity Brassica juncea (inhibition level)) [%] | inhibition at 300 g/ha (Echinochloa crusgalli; Echinochloa crus-galli, 360 h, read-out: Herbicidal activity Echinochloa crusgalli (inhibition level)) [%] | inhibition at 300 g/ha (Digiatria sanguinalis; 360 h, read-out: Herbicidal activity Digiatria sanguinalis (inhibition level)) [%] | Herbicidal activity Setaria viridis (inhibition level) (Setaria viridis) | Herbicidal activity Chenopodium album (inhibition level) (Chenopodium album) | Herbicidal activity Amaranthus retroflexus (inhibition level) (Amaranthus retroflexus) | Herbicidal activity Brassica juncea (inhibition level) (Brassica juncea) | Herbicidal activity Echinochloa crusgalli (inhibition level) (Echinochloa crusgalli) | Herbicidal activity Digiatria sanguinalis (inhibition level) (Digiatria sanguinalis) |
| --- | --- | --- | --- | --- | --- | --- | --- | --- | --- | --- | --- | --- |
| CCCS(=O)(=O)c1nc2cc(-n3nc(C)n(C)c3=O)c(F)cc2s1 [Compound 48, 1-(6-fluoro-2-(propylsulfonyl)benzo[d]thiazol-5-yl)-3,4-dimethyl-1H-1,2,4-triazol-5(4H)-one] | 60 to 80 | 50 to 60 | 80 to 90 | 80 to 90 | 80 to 90 | 80 to 90 | – | – | – | – | – | – |
| Cc1nn(-c2cc3nc(S(=O)(=O)Cc4ccc(F)cc4F)sc3cc2F)c(=O)n1C(F)F [Compound 49] | – | – | – | – | – | – | D (50 ≦ D < 60%) | B (80 ≦ B < 90%) | A (90 ≦ A ≦ 100%) | A (90 ≦ A ≦ 100%) | A (90 ≦ A ≦ 100%) | C (60 ≦ C < 80%) |
| Cc1nn(-c2cc3nc(S(=O)(=O)Cc4cccc([N+](=O)[O-])c4)sc3cc2F)c(=O)n1C(F)F [Compound 50] | – | – | – | – | – | – | B (80 ≦ B < 90%) | D (50 ≦ D < 60%) | B (80 ≦ B < 90%) | C (60 ≦ C < 80%) | B (80 ≦ B < 90%) | A (90 ≦ A ≦ 100%) |
| Cc1nn(-c2cc3nc(S(=O)(=O)Cc4ccccc4)sc3cc2F)c(=O)n1C(F)F [Compound 51] | – | – | – | – | – | – | A (90 ≦ A ≦ 100%) | B (80 ≦ B < 90%) | A (90 ≦ A ≦ 100%) | B (80 ≦ B < 90%) | C (60 ≦ C < 80%) | A (90 ≦ A ≦ 100%) |
| Cc1nn(-c2cc3nc(S(=O)(=O)Cc4ccccc4F)sc3cc2F)c(=O)n1C(F)F [Compound 52] | – | – | – | – | – | – | B (80 ≦ B < 90%) | B (80 ≦ B < 90%) | C (60 ≦ C < 80%) | B (80 ≦ B < 90%) | E (E < 50%) | A (90 ≦ A ≦ 100%) |
| Cc1nn(-c2cc3nc(S(=O)(=O)Cc4cccc(Cl)c4)sc3cc2F)c(=O)n1C(F)F [Compound 53] | – | – | – | – | – | – | D (50 ≦ D < 60%) | B (80 ≦ B < 90%) | B (80 ≦ B < 90%) | A (90 ≦ A ≦ 100%) | C (60 ≦ C < 80%) | B (80 ≦ B < 90%) |
| CCOC(=O)CS(=O)(=O)c1nc2cc(-n3nc(C)n(C(F)F)c3=O)c(Br)cc2s1 [Compound 54] | – | – | – | – | – | – | D (50 ≦ D < 60%) | C (60 ≦ C < 80%) | B (80 ≦ B < 90%) | A (90 ≦ A ≦ 100%) | B (80 ≦ B < 90%) | C (60 ≦ C < 80%) |
| CCCCCCS(=O)(=O)c1nc2cc(-n3nc(C)n(C(F)F)c3=O)c(F)cc2s1 [Compound 55] | – | – | – | – | – | – | B (80 ≦ B < 90%) | A (90 ≦ A ≦ 100%) | C (60 ≦ C < 80%) | C (60 ≦ C < 80%) | E (E < 50%) | B (80 ≦ B < 90%) |
